Data: paper PMC6273978, “Synthesis and Pharmacological Evaluation of Novel Pleuromutilin Derivatives with Substituted Benzimidazole Moieties” (Molecules, 2016)
Where a name gives a salt, the structure may show the parent alone.

What was measured:
[1] = tested on: Methicillin-resistant Staphylococcus aureus (MRSA); assay: MIC testing, agar dilution method; type: cell-based; conditions: 36.5 °C, 24–48 h
Description: (§1) The synthesized pleuromutilin derivatives 3 and 4a–l, with tiamulin fumarate used a as reference drug, were screened for their in vitro antibacterial activity against Escherichia coli (E. coli), Staphylococcus aureus (S. aureus), Methicillin-resistant Staphylococcus aureus (MRSA), Staphylococcus vitulinus (S. vitulinus), Staphylococcus warneri (S. warneri), and Staphylococcus haemolyticus (S. haemolyticus). The antibacterial activities are reported in Table 1 as the minimum inhibitory concentration (MIC) using the agar dilution method. The MICs of the 13 new pleuromutilin derivatives in vitro against E. coli ranged from 10 to 80 μg/mL; against S. aureus, MRSA, S. vitulinus, S. warneri, and S. haemolyticus ranged from 0.156 to 40 μg/mL, respectively.
(§2) The MIC for the synthesized compounds (3 and 4a–l) and tiamulin fumarate used as a reference drug were determined using the agar dilution method according to the National Committee for Clinical Laboratory Standards (NCCLS). Tested compounds were dissolved in 25%–40% DMSO to a solution with a concentration of 1280 µg/mL, whereas tiamulin fumarate was directly dissolved in 10 mL of distilled water at the same concentration as the tested compounds. All the solutions were then diluted twofold with sterile water to provide 11 dilutions (final concentration is 0.625 µg/mL). A 2 mL volume of the 2-fold serial dilution of each test compound/drug was incorporated into 18 mL of hot Muellere-Hinton agar medium. Inoculums, including five Gram (+), S. aureus, MRSA, S. vitulinus, S. warneri, S. haemolyticus, and one Gram (−), E. coli were prepared from blood slants and adjusted to approximately 10^5–10^6 CFU/mL with sterile saline (0.90% NaCl). A 10 µL amount of bacterial suspension was spotted onto Muellere-Hinton agar plates containing serial dilutions of the compounds/drug. The plates were incubated at 36.5 °C for 24–48 h. The same procedure was repeated in triplicate.

[2] = tested on: Staphylococcus aureus (S. aureus); assay: MIC testing, agar dilution method; type: cell-based; conditions: 36.5 °C, 24–48 h
Description: as §1, §2

[3] = tested on: Escherichia coli (E. coli); assay: MIC testing, agar dilution method; type: cell-based; conditions: 36.5 °C, 24–48 h
Description: as §1, §2

[4] = tested on: Staphylococcus warneri (S. warneri); assay: MIC testing, agar dilution method; type: cell-based; conditions: 36.5 °C, 24–48 h
Description: as §1, §2

[5] = tested on: Staphylococcus haemolyticus (S. haemolyticus); assay: MIC testing, agar dilution method; type: cell-based; conditions: 36.5 °C, 24–48 h
Description: as §1, §2

[6] = tested on: Staphylococcus vitulinus (S. vitulinus); assay: MIC testing, agar dilution method; type: cell-based; conditions: Mammaliicoccus vitulinus, 36.5 °C, 24–48 h
Description: as §1, §2

MRSA [7] = assay: Inhibition of short-term bacterial growth (absorbance at 450 nm); type: cell-based; conditions: Staphylococcus aureus, 3.5 h incubation, Mueller-Hinton broth
Description: (§3) Compound 3, being the best antibacterial derivative, was chosen for further evaluation on its antibacterial effect to inhibit short-term S. aureus and MRSA growth (Figure 2). This includes the GI50 of tiamulin fumarate for S. aureus and MRSA.
(§4) The inhibition activities of test compounds were evaluated by measuring the absorbance of the bacterial suspension. In brief, inoculums were prepared from blood slants and adjusted to approximately 10^6 CFU/mL in Muellere-Hinton broth. The 0.0625, 0.125, 0.25, 0.5, 1, and 2 µM of tested compounds were prepared and added to the prepared inoculums. A sample of inoculum with no compound was used as control. The absorbance of bacterial suspension at 450 nm was measured using an UV spectrophotometer after 3.5 h of incubation, and the inhibition was calculated as 1 − (A^P/A^0), where A^p and A^0 are the absorbance of bacterial suspension in the presence and absence of compounds, respectively. The same procedure was independently repeated in triplicate.

S. aureus [8] = assay: as above; type: cell-based; conditions: Staphylococcus aureus, 3.5 h, read-out: GI50 S. aureus growth
Description: as §3, §4

MRSA [9] = assay: Oxford cup assay, zone of inhibition; type: cell-based; conditions: Staphylococcus aureus
Description: (§5) The Oxford cup assays were carried out to evaluate the antibacterial activities against the above-mentioned six bacterial strains. The zones of inhibition for two concentrations (320 and 160 μg/mL) of the synthetic compounds and tiamulin fumarate were measured. The results of Oxford cup assay correspond with that obtained by agar dilution method (MICs) as a whole.
(§6) The procedure for Oxford cup assays was the same as that previously reported. Briefly, inoculums were prepared in 0.9% saline using McFarland standard and spread uniformly on nutrient agar plates. The 320 and 160 µg/mL of all the tested compounds were added individually into the Oxford cups that were placed at equal distances above the agar surfaces. The zone of inhibition for each concentration was measured after a 24–36 h incubation at 37 °C. The same procedure was repeated in triplicate.

S. warneri = assay: Oxford cup assay, zone of inhibition; type: cell-based; conditions: Staphylococcus warneri
Description: as §5, §6

S. aureus [10] = assay: Oxford cup assay, zone of inhibition; type: cell-based; conditions: Staphylococcus aureus
Description: as §5, §6

S. haemolyticus = assay: Oxford cup assay, zone of inhibition; type: cell-based; conditions: Staphylococcus haemolyticus
Description: as §5, §6

E. coli = assay: Oxford cup assay, zone of inhibition; type: cell-based; conditions: Escherichia coli
Description: as §5, §6

S. vitulinus = assay: Oxford cup assay, zone of inhibition; type: cell-based, Staphylococcus vitulinus; conditions: Mammaliicoccus vitulinus
Description: as §5, §6

## C=C[C@]1(C)C[C@@H](OC(=O)CSCCN(CC)CC)[C@]2(C)[C@H](C)CC[C@]3(CCC(=O)[C@H]32)[C@@H](C)[C@@H]1O [Tiamulin, tiamulin fumarate, reference compound]
[1]
  MIC: 0.156 µg/mL
[2]
  MIC: 0.156 µg/mL
[3]
  MIC: 1.25 µg/mL
[4]
  MIC: 0.156 µg/mL
[5]
  MIC: 0.156 µg/mL
[6]
  MIC: 0.156 µg/mL
MRSA [7]
  GI50: 254 nM
S. aureus [8]
  GI50: 98.3 nM
MRSA [9]; 160 µg/mL
  zone of inhibition at 160 µg/mL: 28.1 mm
MRSA [9]; 320 µg/mL
  zone of inhibition at 320 µg/mL: 30.5 mm
S. warneri; 160 µg/mL
  zone of inhibition at 160 µg/mL: 22.4 mm
S. warneri; 320 µg/mL
  zone of inhibition at 320 µg/mL: 30.5 mm
S. aureus [10]; 160 µg/mL
  zone of inhibition at 160 µg/mL: 25.1 mm
S. aureus [10]; 320 µg/mL
  zone of inhibition at 320 µg/mL: 28.2 mm
S. haemolyticus; 160 µg/mL
  zone of inhibition at 160 µg/mL: 28.8 mm
S. haemolyticus; 320 µg/mL
  zone of inhibition at 320 µg/mL: 31.5 mm
E. coli; 160 µg/mL
  zone of inhibition at 160 µg/mL: 25.8 mm
E. coli; 320 µg/mL
  zone of inhibition at 320 µg/mL: 27.1 mm
S. vitulinus; 160 µg/mL
  zone of inhibition at 160 µg/mL: 18.6 mm
S. vitulinus; 320 µg/mL
  zone of inhibition at 320 µg/mL: 30.9 mm
